Each compound was assayed on Echinochloa crus-galli (ECHCG) (assay: Example B post-emergence herbicidal activity, glasshouse pot test). Details: 312 h, rate 1000 g/ha, evaluated after 13 days, read-out: Post-emergence activity ECHCG (100=total damage to plant; 0=no damage to plant).
Type: in vivo
Method in brief: (§1)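 Herbicidal effect was judged 13 days after treatment as percent-style damage (100 = total kill). Seeds in standard soil had grown 1 day (pre) or 8 days (post) in a 24/16 °C, 14 h light, 65% humidity glasshouse before spraying with compound in acetone/water (50:50) containing 0.5% Tween 20.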
With `Cc1ccc(-c2ccc(Cl)nc2)cc1C1=C(O)C(C)(C)OC(C)(C)C1=O` [Compound A-54] the pest or weed control at 1000 g/ha was 90%.
`Cc1ccc(-c2ccc(Cl)nc2C)cc1C1=C(O)C(C)(C)OC(C)(C)C1=O` [Compound A-56] gave a pest or weed control at 1000 g/ha of 80%.
Compound `Cc1ccc(-c2ccc(Cl)nc2Cl)cc1C1=C(O)C(C)(C)OC(C)(C)C1=O` [Compound A-58] has a pest or weed control at 1000 g/ha of 100%.

The compounds below were run on Amaranthus retroflexus (AMARE) in the same assay as above. Details: 312 h, rate 1000 g/ha, evaluated after 13 days, read-out: Post-emergence activity AMARE (100=total damage to plant; 0=no damage to plant).
Type: in vivo
Method in brief: as §1
With `Cc1ccc(-c2ccc(Cl)nc2)cc1C1=C(O)C(C)(C)OC(C)(C)C1=O` [Compound A-54] the pest or weed control at 1000 g/ha was 0%.
Work on `Cc1ccc(-c2ccc(Cl)nc2C)cc1C1=C(O)C(C)(C)OC(C)(C)C1=O` [Compound A-56] yielded a pest or weed control at 1000 g/ha of 20%.
`Cc1ccc(-c2ccc(Cl)nc2Cl)cc1C1=C(O)C(C)(C)OC(C)(C)C1=O` [Compound A-58] was tested, and the pest or weed control at 1000 g/ha was 70%.

What follows are compounds tested on Solanum nigrum (SOLNI) in the same assay as above. Details: 312 h, rate 1000 g/ha, evaluated after 13 days, read-out: Post-emergence activity SOLNI (100=total damage to plant; 0=no damage to plant).
Type: in vivo
Method in brief: as §1
Compound `Cc1ccc(-c2ccc(Cl)nc2)cc1C1=C(O)C(C)(C)OC(C)(C)C1=O` [Compound A-54] has a pest or weed control at 1000 g/ha of 0%.
With `Cc1ccc(-c2ccc(Cl)nc2C)cc1C1=C(O)C(C)(C)OC(C)(C)C1=O` [Compound A-56] the pest or weed control at 1000 g/ha was 20%.
`Cc1ccc(-c2ccc(Cl)nc2Cl)cc1C1=C(O)C(C)(C)OC(C)(C)C1=O` [Compound A-58] showed a pest or weed control at 1000 g/ha of 30%.

What follows are compounds tested on Alopecurus myosuroides (ALOMY) in the same assay as above. Details: 312 h, rate 1000 g/ha, evaluated after 13 days, read-out: Post-emergence activity ALOMY (100=total damage to plant; 0=no damage to plant).
Type: in vivo
Method in brief: as §1
Work on `Cc1ccc(-c2ccc(Cl)nc2)cc1C1=C(O)C(C)(C)OC(C)(C)C1=O` [Compound A-54] yielded a pest or weed control at 1000 g/ha of 80%.
With `Cc1ccc(-c2ccc(Cl)nc2C)cc1C1=C(O)C(C)(C)OC(C)(C)C1=O` [Compound A-56] the pest or weed control at 1000 g/ha was 80%.
Work on `Cc1ccc(-c2ccc(Cl)nc2Cl)cc1C1=C(O)C(C)(C)OC(C)(C)C1=O` [Compound A-58] yielded a pest or weed control at 1000 g/ha of 90%.

What follows are compounds tested on Setaria faberi (SETFA) in the same assay as above. Details: 312 h, rate 1000 g/ha, evaluated after 13 days, read-out: Post-emergence activity SETFA (100=total damage to plant; 0=no damage to plant).
Type: in vivo
Method in brief: as §1
`Cc1ccc(-c2ccc(Cl)nc2)cc1C1=C(O)C(C)(C)OC(C)(C)C1=O` [Compound A-54] gave a pest or weed control at 1000 g/ha of 80%.
`Cc1ccc(-c2ccc(Cl)nc2C)cc1C1=C(O)C(C)(C)OC(C)(C)C1=O` [Compound A-56] showed a pest or weed control at 1000 g/ha of 80%.
`Cc1ccc(-c2ccc(Cl)nc2Cl)cc1C1=C(O)C(C)(C)OC(C)(C)C1=O` [Compound A-58] gave a pest or weed control at 1000 g/ha of 90%.

What follows are compounds tested on Avena fatua (AVEFA) in the same assay as above. Details: 312 h, rate 1000 g/ha, evaluated after 13 days, read-out: Post-emergence activity AVEFA (100=total damage to plant; 0=no damage to plant).
Type: in vivo
Method in brief: as §1
In the case of `Cc1ccc(-c2ccc(Cl)nc2)cc1C1=C(O)C(C)(C)OC(C)(C)C1=O` [Compound A-54], the pest or weed control at 1000 g/ha is reported as 50%.
`Cc1ccc(-c2ccc(Cl)nc2C)cc1C1=C(O)C(C)(C)OC(C)(C)C1=O` [Compound A-56] was tested, and the pest or weed control at 1000 g/ha was 50%.
`Cc1ccc(-c2ccc(Cl)nc2Cl)cc1C1=C(O)C(C)(C)OC(C)(C)C1=O` [Compound A-58] gave a pest or weed control at 1000 g/ha of 90%.

What follows are compounds tested on Echinochloa crus-galli (ECHCG) (assay: Example B pre-emergence herbicidal activity, glasshouse pot test). Details: 312 h, rate 1000 g/ha, evaluated after 13 days, read-out: Pre-emergence activity ECHCG (100=total damage to plant; 0=no damage to plant).
Type: in vivo
Method in brief: as §1
`Cc1ccc(-c2ccc(Cl)nc2)cc1C1=C(O)C(C)(C)OC(C)(C)C1=O` [Compound A-54] was tested, and the pest or weed control at 1000 g/ha was 100%.
`Cc1ccc(-c2ccc(Cl)nc2C)cc1C1=C(O)C(C)(C)OC(C)(C)C1=O` [Compound A-56] was tested, and the pest or weed control at 1000 g/ha was 30%.
Compound `Cc1ccc(-c2ccc(Cl)nc2Cl)cc1C1=C(O)C(C)(C)OC(C)(C)C1=O` [Compound A-58] has a pest or weed control at 1000 g/ha of 100%.

These compounds were tested on Amaranthus retroflexus (AMARE) in the same assay as above. Details: 312 h, rate 1000 g/ha, evaluated after 13 days, read-out: Pre-emergence activity AMARE (100=total damage to plant; 0=no damage to plant).
Type: in vivo
Method in brief: as §1
With `Cc1ccc(-c2ccc(Cl)nc2)cc1C1=C(O)C(C)(C)OC(C)(C)C1=O` [Compound A-54] the pest or weed control at 1000 g/ha was 20%.
In the case of `Cc1ccc(-c2ccc(Cl)nc2C)cc1C1=C(O)C(C)(C)OC(C)(C)C1=O` [Compound A-56], the pest or weed control at 1000 g/ha is reported as 0%.
`Cc1ccc(-c2ccc(Cl)nc2Cl)cc1C1=C(O)C(C)(C)OC(C)(C)C1=O` [Compound A-58] gave a pest or weed control at 1000 g/ha of 20%.

Each compound was assayed on Solanum nigrum (SOLNI) in the same assay as above. Details: 312 h, rate 1000 g/ha, evaluated after 13 days, read-out: Pre-emergence activity SOLNI (100=total damage to plant; 0=no damage to plant).
Type: in vivo
Method in brief: as §1
`Cc1ccc(-c2ccc(Cl)nc2)cc1C1=C(O)C(C)(C)OC(C)(C)C1=O` [Compound A-54] was tested, and the pest or weed control at 1000 g/ha was 0%.
`Cc1ccc(-c2ccc(Cl)nc2C)cc1C1=C(O)C(C)(C)OC(C)(C)C1=O` [Compound A-56] showed a pest or weed control at 1000 g/ha of 20%.
Work on `Cc1ccc(-c2ccc(Cl)nc2Cl)cc1C1=C(O)C(C)(C)OC(C)(C)C1=O` [Compound A-58] yielded a pest or weed control at 1000 g/ha of 20%.

The compounds below were run on Alopecurus myosuroides (ALOMY) in the same assay as above. Details: 312 h, rate 1000 g/ha, evaluated after 13 days, read-out: Pre-emergence activity ALOMY (100=total damage to plant; 0=no damage to plant).
Type: in vivo
Method in brief: as §1
Compound `Cc1ccc(-c2ccc(Cl)nc2)cc1C1=C(O)C(C)(C)OC(C)(C)C1=O` [Compound A-54] has a pest or weed control at 1000 g/ha of 70%.
For `Cc1ccc(-c2ccc(Cl)nc2C)cc1C1=C(O)C(C)(C)OC(C)(C)C1=O` [Compound A-56], the pest or weed control at 1000 g/ha was 10%.
For `Cc1ccc(-c2ccc(Cl)nc2Cl)cc1C1=C(O)C(C)(C)OC(C)(C)C1=O` [Compound A-58], the pest or weed control at 1000 g/ha was 80%.

These compounds were tested on Setaria faberi (SETFA) in the same assay as above. Details: 312 h, rate 1000 g/ha, evaluated after 13 days, read-out: Pre-emergence activity SETFA (100=total damage to plant; 0=no damage to plant).
Type: in vivo
Method in brief: as §1
Work on `Cc1ccc(-c2ccc(Cl)nc2)cc1C1=C(O)C(C)(C)OC(C)(C)C1=O` [Compound A-54] yielded a pest or weed control at 1000 g/ha of 90%.
`Cc1ccc(-c2ccc(Cl)nc2C)cc1C1=C(O)C(C)(C)OC(C)(C)C1=O` [Compound A-56] was tested, and the pest or weed control at 1000 g/ha was 0%.
Compound `Cc1ccc(-c2ccc(Cl)nc2Cl)cc1C1=C(O)C(C)(C)OC(C)(C)C1=O` [Compound A-58] has a pest or weed control at 1000 g/ha of 100%.

Each compound was assayed on Avena fatua (AVEFA) in the same assay as above. Details: 312 h, rate 1000 g/ha, evaluated after 13 days, read-out: Pre-emergence activity AVEFA (100=total damage to plant; 0=no damage to plant).
Type: in vivo
Method in brief: as §1
`Cc1ccc(-c2ccc(Cl)nc2)cc1C1=C(O)C(C)(C)OC(C)(C)C1=O` [Compound A-54] gave a pest or weed control at 1000 g/ha of 80%.
In the case of `Cc1ccc(-c2ccc(Cl)nc2C)cc1C1=C(O)C(C)(C)OC(C)(C)C1=O` [Compound A-56], the pest or weed control at 1000 g/ha is reported as 40%.
With `Cc1ccc(-c2ccc(Cl)nc2Cl)cc1C1=C(O)C(C)(C)OC(C)(C)C1=O` [Compound A-58] the pest or weed control at 1000 g/ha was 60%.

From patent publication US8680012B2, “4-phenyl-pyrane-3,5-diones,4-phenyl-thiopyrane-3,6-diones and cyclohexanetriones as novel herbicides” (Syngenta Crop Protection LLC, priority 2006, dated 2014)
